Results as given in patent US5648330A, “Method and composition for treating vascular graft occlusion” (La Jolla Cancer Research Foundation, priority 1995, dated 1997).
Where “and” joins values, the source holds several entries; their conditions need not be identical. Identical values can stand only once. Where no end group is shown, it is not given here. [ ]: non-standard residue; d: D form. Pen = CC(C)(S)[C@H](N)C(=O)O

Legend:
[1] = tested on: platelets stimulated with thrombin; experiment: Thrombin-stimulated platelet aggregation (Born aggregometry); format: cell-based, human; conditions: thrombin 2 U/ml, gel-filtered platelets, 37° C.
Method: Platelet aggregation was assessed using the method of Born, Nature 194: 927-929 (1962), incorporated herein by reference. Briefly, the change in light transmission was measured through a stirred suspension of platelets in an aggregometer (Model 400 VS, Chrono-Log, Havertown, Pa., USA). […] In studies using thrombin, the PRP was gel-filtered on Sepharose 2B in divalent ion-free Tyrode's solution containing 2% BSA. For all studies, the reference standard was platelet-poor plasma, which was obtained by centrifuging PRP at 1000× g for 5 min.
All aggregation studies were performed at 37° C. with a constantly stirred suspension of 3×10^8 platelets/ml. (Platelet count was determined with the aid of a hemacytometer.) Peptides and stimulants were added to these suspensions in 1% dilutions. The PRP and gel-filtered platelets were used within three hours from the time of blood collection.
Peptide anti-aggregation potencies were determined from dose-responsive curves for the inhibition of the maximum aggregation responses stimulated by physiologic doses of ADP (10 μm) and thrombin (2 U/ml).

[2] = tested on: platelets stimulated with ADP; experiment: ADP-stimulated platelet aggregation (Born aggregometry, PRP); format: cell-based, human; conditions: ADP 10 μm, platelet-rich plasma, 37° C.
Method: Platelet aggregation was assessed using the method of Born, Nature 194: 927-929 (1962), incorporated herein by reference. Briefly, the change in light transmission was measured through a stirred suspension of platelets in an aggregometer (Model 400 VS, Chrono-Log, Havertown, Pa., USA). Studies employing ADP were performed with platelet-rich plasma (PRP), which was obtained by low-speed centrifugation (200× g for 10 min.) of whole blood freshly drawn into trisodium citrate (at a final concentration of 11 mM). […] For all studies, the reference standard was platelet-poor plasma, which was obtained by centrifuging PRP at 1000× g for 5 min.

[3] = tested on: canine platelet aggregation; experiment: In vitro canine platelet aggregation stimulated by ADP, arachidonic acid or collagen; format: cell-based, dog; conditions: 10 μm ADP, […] arachidonic acid or 9.6 micrograms/ml collagen; PRP; read-out: IC50 against canine platelet aggregation
Method: (§1) Platelet counts and ex vivo aggregation studies were performed one hour before and 1, 3, and 5 hours after application of anodal direct current.
Epinephrine (550 nM) was used to prime platelets before stimulation with arachidonic acid. Peptides were added in 1% dilutions to the PRP solutions.

platelet aggregation [4] = experiment: Ex vivo platelet aggregation after peptide injection in canine coronary thrombosis model; design: species or system dog; conditions: for ex vivo aggregation reduced relative to control: 3 mg/kg
Method: For all ex vivo studies (see FIGS. 3a, 3b1, 3b2, 3b3, 3c1 and 3c2), control aggregation values were standardized to the percentages of light transmission observed in PRP and PPP samples (0% and 100%, respectively).
(§2) Animals were randomly assigned to two treatment groups: vehicle control (i.e., normal saline) or RGD peptides at various concentrations. Peptides were administered intra-atrially in both bolus and continuous injections. […] A continuous infusion of the same peptide was then started immediately after completion of this initial injection. Animals that received a 5 mg/kg bolus also received a 5 mg/kg/hr infusion, whereas animals that received a 10 mg/kg bolus also received a 10 mg/kg/hr infusion. The anti-thrombotic effects of the peptides were monitored until 30 minutes after the occurrence of a persistent, occlusive thrombus or five hours after the initiation of electrical stimulation (whichever resulted first). If an occlusive thrombus had not developed within four hours after the initiation of current, the peptide infusion was stopped.
as §1
Platelet aggregation was also determined ex vivo at one, three, and five hours after current application. For these studies, arachidonic acid, or collagen was again used to stimulate the platelets.
The average aggregation values determined in these studies for all of the peptide treatments are depicted in FIGS. 3a, 3b1, 3b2, 3b3, 3c1, and 3c2. […] The control responses in these studies were 70-80% of maximum. […] Here the control responses were 55-80% of maximum.

coronary thrombosis = experiment: Electrically induced canine coronary thrombosis, time to full occlusion; format: in vivo, dog
Method: Male mongrel dogs weighing 14 to 20 kg were selected based on proper aggregation of their platelets in response to arachidonic acid, collagen, and adenosine disphosphate (ADP) and based on similar weights and hemodynamic properties.
Before surgery, the animals were anesthetized with sodium pentobarbital (30 mg/kg, i.v.) and then intubated and ventilated on room air with positive pressure using a respirator (Harvard Apparatus, S. Natick, Mass.) at a volume of 30 ml/kg and a frequency of 12 breaths/min. Surgery, performed under aseptic conditions, was begun with the placement of cannulae into the left carotid artery and jugular vein for monitoring arterial blood pressure (Statham P23 pressure transducer, Gould, Inc., Cardiovascular Products, Oxnard, Calif.) and administering intravenous fluids.
The heart was exposed via a left thoracotomy through the 5th intercostal space. A 2-cm segment of the left circumflex coronary artery (LCCA) was isolated from surrounding tissue by blunt dissection. […] The intra-coronary electrode was constructed by attaching a 25-gauge hypodermic needle tip to a 30-gauge Teflon-insulated silver-coated copper wire. The mechanical occluder was constructed of stainless steel in a C shape with a Teflon screw (2 mm diameter) on top. It was adjusted to control vessel circumference and decrease the reactive hyperemic flow due to a 10-sec (full) occlusion by 50-70% without affecting basal coronary blood flow (FIG. 1c). A monopolar epicardial electrode was sutured to the surface of the ventricle in the region of LCCA distribution to monitor ischemic changes in the electrocardiogram (ECG). The left atrium was cannulated with polythylene tubing for administration of the peptide. Continuous recordings of blood pressure, limb lead II ECG, epicardial electrogram, and mean and phasic LCCA blood flow were obtained on a Model 7 polygraph (Grass Instrument Co., Quincy, Mass.).
One hour after the completion of surgery, a 100 micro-amp continuous anodal direct current delivered from a 9 volt nickel-cadmium battery was applied to the intimal surface of the LCCA. The anode of the battery was in series with a 250,000 ohm potentiometer and the intraluminal coronary artery electrode. The electric circuit was completed by placing the cathode in a subcutaneous site. Electrical stimulation was applied for three hours. At the conclusion of each experiment, the heart was fibrillated electrically and quickly removed, and the LCCA was dissected free as far as possible to verify the position of the implanted anodal electrode.
as §2
Coronary thrombosis was quantified as the time to full occlusion. The effects of the various peptide treatments on coronary thrombosis is illustrated in FIG. 4.

[5] = tested on: Gore-tex vascular graft thrombosis; experiment: Platelet and fibrinogen uptake by Gore-tex grafts in baboon ex vivo shunt
Method: Adult male baboons (weighing 16 to 25 kg) were used in these studies. These were sedated with ketamine hydrochloride (200 to 250 mg intramuscular injection) and maintained under anesthesia with sodium pentobarbital (50 to 75 mg administered intravenously as necessary).
Twenty-four hours before the ex vivo shunt was established, platelets were isolated from 500 ml of blood from the test animal and labelled with ca. 500 microcuries of indium-111 oxine (Medi+Physics, Emeryville, Calif.), which irreversibly and specifically binds to platelets with an efficiency of 50%. Immediately after labelling, these platelets were then injected back into the animal and allowed to circulate for 24 hours. Immediately before the start of the study, fibrinogen that had been isolated from the animal and labelled with iodine-131 (DuPont Nuclear, Boston, Mass.) was also injected back into the animal. Also at this time, baseline determinations of the clotting and template bleeding times were made, and blood samples were drawn for hematology studies.
To establish the ex vivo shunt, the femoral artery and vein were percutaneously cannulated with introducer catheters (KMA Inc., Mansfield, Mass.). The catheters were then connected to medical-grade, heparin-coatedsilastic tubing (2.59 mm internal diameter, (Extracorporeal Medical Specialties, Inc., King of Prussia, Pa.). […] Finally, a 5 cm-long test segment of a 4 mm (internal diameter) vascular graft was inserted at the apex of the circuit. The graft used in these studies was Gore-tex (expanded polytetrafluoroethylene, (W. L. Gore and Associates, Inc., Flagstaff, Ariz.). An electromagnetic flow probe was then inserted into the tubing circuit to measure blood flow, which was maintained at 100 ml/min. by varying the resistance imported by a partially occluding screw clamp that was distal to the probe. Finally, a 5 cm-long test segment of a 4 mm (internal diameter) vascular graft was inserted at the apex of the circuit. The graft used in these studies was Gore-tex (expanded polytetrafluoroethylene, W. L. Gore and Associates, Inc., Flagstaff, Ariz.).
Platelet deposition onto the grafts was monitored by dynamic scanning with a gamma camera (Sigma 400, Ohio Nuclear, Inc., Sohon, Ohio), which detects the gamma radiation emitted by the indium^111 -labelled platelets. Once the circuit was in place, the animal was placed under this camera, and blood flow was initiated. Scans were then taken at the rate of one frame per two minutes for two hours. The data from these scans were collected on a dedicated Digital MDA computer (Maynard, Mass.). […]

platelet aggregation [6] = experiment: Ex vivo ADP-stimulated platelet aggregation in baboon PRP; conditions: animal 2; ADP 10 μm; 0, 1 and 2 hours
Method: At one- and two-hour time points, template bleeding times were measured, and blood samples were drawn to assess the hematology aggregation studies. Platelet aggregation studies were performed as described in Example V using ADP as the stimulus.
In addition, platelet aggregation studies were conducted on PRP derived from the second animal. Whole blood was drawn at three time points (0, 1 and 2 hours) of both control and experimental shunts.

[7] = 10 mg/kg bolus + 10 mg/kg/hr infusion, intra-atrial
[8] = 10 mg/kg, all three time points
[9] = animal 1, two bolus IV injections of 10 mg/kg
[10] = animal 2, 10 mg/kg IV bolus + 10 mg/kg/hr infusion for two hours

| Substance | IC50 [1] | IC50 [2] | other results |
| --- | --- | --- | --- |
| RPenGHRGDWRCR | 1.2 µM | 1.3 µM | IC50 [3]: 1.5 to 5 µM; ex vivo inhibition of platelet activation by collagen (platelet aggregation [4]; 5 mg/kg): near-maximal inhibition; ex vivo platelet response to ADP and AA (platelet aggregation [4]; 5 mg/kg, all three time points): completely unresponsive; ex vivo anti-aggregation effect when platelet count was low (platelet aggregation [4]; 5 mg/kg, platelet count ca. one-third of normal (104,000/ml vs. 361,000/ml)): more pronounced; ex vivo platelet responsiveness (platelet aggregation [4]; 10 mg/kg, five-hour point): slightly improved; ex vivo platelet aggregation by all three stimuli (platelet aggregation [4]; 10 mg/kg, one- and three-hour time points): prevented platelet aggregation; thrombus formation in animals with circulating platelet levels one-third of normal (coronary thrombosis; 5 mg/kg): able to prevent thrombus formation; time to full occlusion (coronary thrombosis; 5 mg/kg bolus + 5 mg/kg/hr infusion): significantly prolonged the time to occlusion; time to full occlusion (coronary thrombosis; [7]): completely prevented occlusion |
| GPenGHRGDTRCA | 17 µM | 11.3 µM |  |
| R[Pen]GRGDLRCA (cysteine pairing not given here) | 13 µM | 16 µM |  |
| GPenFRGDSFCA |  | > 200 µM |  |
| LRGDSPDG |  | 150 µM |  |
| GPenGRGDTPCA | 28 µM | 22.3 µM |  |
| GPenGRGDRPCA |  | 22.3 µM |  |
| RPenGRGDTPCA | 3.1 µM | 7 µM |  |
| VRGDSPDG |  | 92 µM |  |
| GPenLRGDSPCA | 308 µM | 415 µM |  |
| GPenGHRGDLRCA |  |  | IC50 [3]: 15 to 30 µM; ex vivo inhibition of AA-stimulated aggregation relative to control (platelet aggregation [4]; [8]): 43-70%; ex vivo inhibition of collagen-stimulated aggregation relative to control (platelet aggregation [4]; [8]): 12-50%; ex vivo inhibition of ADP-stimulated aggregation (platelet aggregation [4]; 10 mg/kg, one, three, five hours): substantially inhibited; time to full occlusion (coronary thrombosis; [7]): did not significantly influence; reduction in I131-fibrinogen uptake by graft [5, 9]: 79%; reduction in In111-platelet uptake by graft [5, 9]: 90%; reduction in labelled fibrinogen uptake by graft [5, 10]: 78%; reduction in labelled platelet uptake by graft [5, 10]: 84%; ex vivo platelet response to ADP (platelet aggregation [6]): completely unresponsive |
| RPenGRGDTPCR | 2 µM | 6.3 µM |  |
| (t-butylAmino-Pmp) GHRGDLRCA |  | 130 µM |  |
| RPenGRGDTPCK |  | 7.6 µM |  |
| RPenGRGDWPCR | 0.53 µM |  | IC50 [3]: 1.5 to 5 µM; ex vivo aggregation reduced relative to control (platelet aggregation [4]; one hour): 20-58%; ex vivo aggregation reduced relative to control (platelet aggregation [4]; three and five hours, listed as 4R): 75-100% and 72-100%; ex vivo platelet response to all modes of stimulation (platelet aggregation [4]; 10 mg/kg, all time points): unresponsive; time to full occlusion (coronary thrombosis; 3 mg/kg): ineffective; time to full occlusion (coronary thrombosis; [7]): prevented occlusion |
| (t-but-am-Pmp)GHRGDLRPenA |  | 89 µM |  |
| R2 PenGRGDTPCA | 2.7 µM | 8.2 µM |  |
| R[Pen]GHRGDTRCR (cysteine pairing not given here) |  | 8.8 µM |  |
| GPenLRGDTPCA |  | 86 µM |  |
| LPenGHRGDLRCA |  | 10.5 µM |  |
| G[Pen]YRGDSPCA (cysteine pairing not given here) |  | 47 µM |  |
| GPenLRGDSRCA | 49 µM | 41 µM |  |
| FRGDSPDG |  | 110 µM |  |
| R[Pen]GRGDSRCA (cysteine pairing not given here) | 12 µM | 12 µM |  |
| PmpGRGDTPCA |  | 85 µM |  |
| G[Pen]GRGDSFCA (cysteine pairing not given here) |  | 115 µM |  |
| R(orn)GHRGDLRDR |  | > 200 µM |  |
